Tests used:
FasL [1] = experiment: FasL expression at the cell surface by flow cytometry, Jurkat cells; assay type: cell-based; conditions: Jurkat human leukemia T cells, 100 μg/ml sequence, 48 h, treated vs control cells
Procedure: (§1) Cancer cells and PBMCs were seeded in 6 well flat-bottom microplates and were maintained at 37° C. in a 5% CO2 atmosphere. Unless stated otherwise, 2×10^5 cells/ml were incubated for 48 h with 0 μg/ml (control) or 100 μg/ml ([…]) (treated) of the sequences.
(§2) Fas and FasL expression were measured by flow cytometry using anti-Fas FITC-conjugated monoclonal antibodies and anti-FasL PE-conjugated monoclonal antibodies in a FACScalibur Flow Cytometer (Becton Dickinson, San Jose, Calif., USA) using the CELLQuest program (Becton Dickinson).
(§3) Results are expressed as percentage (%) increase in the expression of Fas and of FasL measured on treated cells compared to control cells.
(§4) Jurkat human leukemia T cells are an atypical multi-drug resistant human suspension tumor cell model.

Fas [2] = experiment: Fas expression at the cell surface by flow cytometry, Jurkat cells; assay type: cell-based; conditions: Jurkat human leukemia T cells, 100 μg/ml sequence, 48 h, treated vs control cells
Procedure: as §1, §2, §3, §4

Fas [3] = experiment: Fas expression at the cell surface by flow cytometry, SK-OV-3 cells; assay type: cell-based, human; conditions: SK-OV-3 ovarian cancer cells, 100 μg/ml sequence, 48 h, treated vs control cells
Procedure: as §1, §2, §3
(§5) SK-OV-3 ovarian cancer cells are a p53 mutated, p21/waf-1/Cip deleted, p15^ink4B,p16^ink4 deleted metastatic human solid tumor model.

Fas [4] = experiment: Fas expression at the cell surface by flow cytometry, UMUC-3 cells; assay type: cell-based, human; conditions: UMUC-3 bladder cancer cells, 100 μg/ml sequence, 48 h, treated vs control cells
Procedure: as §1, §2, §3
(§6) UMUC-3 bladder cancer cells are a P-glycoprotein overexpressing human cell line.

Fas [5] = experiment: Fas expression at the cell surface by flow cytometry, OVCAR-3 cells; assay type: cell-based, human; conditions: OVCAR-3 ovarian cancer cells, 100 μg/ml sequence, 48 h, treated vs control cells
Procedure: as §1, §2, §3
(§7) OVCAR-3 ovarian cancer cells are a p53 mutated, p21/waf-1/Cip deleted, metastatic human solid tumor model.

Fas [6] = experiment: Fas expression at the cell surface by flow cytometry, MCF-7 cells; assay type: cell-based, human; conditions: MCF-7 breast cancer cells, 100 μg/ml sequence, 48 h, treated vs control cells
Procedure: as §1, §2, §3
(§8) MCF-7 human breast cancer cells are a caspase-3 negative, estrogen-dependent human solid tumor model.

FasL [7] = experiment: FasL expression at the cell surface by flow cytometry, LNCaP cells; assay type: cell-based, human; conditions: LNCaP prostate cancer cells, 100 μg/ml sequence, 48 h, treated vs control cells
Procedure: as §1, §2, §3
(§9) LNCaP prostate cancer cells are a TGF-beta 1 receptor negative, […], metastatic human solid tumor model.

FasL [8] = experiment: FasL expression at the cell surface by flow cytometry, T-24 cells; assay type: cell-based, human; conditions: T-24 bladder cancer cells, 100 μg/ml sequence, 48 h, treated vs control cells
Procedure: as §1, §2, §3
(§10) T-24 bladder cancer cells are a p53 mutated human cell line T-24 cells (1.0×10^5 cells/ml) were incubated with the 6 base sequences shown in Table 4.

FasL [9] = experiment: FasL expression at the cell surface by flow cytometry, OVCAR-3 cells; assay type: cell-based, human; conditions: OVCAR-3 ovarian cancer cells, 100 μg/ml sequence, 48 h, treated vs control cells
Procedure: as §1, §2, §3, §7

FasL [10] = experiment: FasL expression at the cell surface by flow cytometry, MCF-7 cells; assay type: cell-based, human; conditions: MCF-7 breast cancer cells, 100 μg/ml sequence, 48 h, treated vs control cells
Procedure: as §1, §2, §3, §8

FasL [11] = experiment: FasL expression at the cell surface by flow cytometry, PBMCs; assay type: cell-based, human; conditions: 100 μg/ml sequence, 48 h, treated vs control cells
Procedure: (§11) Peripheral blood mononuclear cells (hereinafter, “PBMCs”) were isolated from human blood by Ficoll-Hypaque (Amersham Pharmacia Biotech, Baie d'Urfée, Québec, Canada) density gradient centrifugation.
as §1, §2, §3

Fas [12] = experiment: Fas expression at the cell surface by flow cytometry, LNCaP cells; assay type: cell-based, human; conditions: LNCaP prostate cancer cells, 100 μg/ml sequence, 48 h, treated vs control cells
Procedure: as §1, §2, §3, §9

FasL [13] = experiment: FasL expression at the cell surface by flow cytometry, UMUC-3 cells; assay type: cell-based, human; conditions: UMUC-3 bladder cancer cells, 100 μg/ml sequence, 48 h, treated vs control cells
Procedure: as §1, §2, §3, §6

EAE = EAE in (SJL/J×PL/J) F1 mice induced with myelin basic protein; assay type: in vivo; conditions: for efficacy, dose dependence: 1, 10 or 100 mg/kg; for progression of EAE: sequence 1, 10 or 100 mg/kg + anti-Fas antibodies, for 3 days
Procedure: Female (SJL/J×PL/J) F1 mice are injected subcutaneously in both femoral regions with an emulsion containing 0.5 mg of myelin basic protein (MBP) mixed with complete Freund's adjuvant. After 24 h, 400 ng of Bordetella pertussis toxin is administered intraperitoneally. On the day of onset (day 0), group 1 mice receive saline, group 2 mice receive 1, 10 or 100 mg/kg of SEQ. ID NO:5, group 3 mice receive 1, 10 or 100 mg/kg of SEQ. ID NO:16, group 4 mice receive 1, 10 or 100 mg/kg of SEQ. ID NO:17, group 5 mice receive 1, 10 or 100 mg/kg of SEQ. ID NO: 18, group 6 mice receive anti-Fas antibodies, group 7 mice receive 1, 10 or 100 mg/kg of SEQ. ID NO:5 +anti-Fas antibodies, group 8 mice receive 1, 10 or 100 mg/kg of SEQ. ID NO:16 +anti-Fas antibodies, group 9 receive 1, 10 or 100 mg/kg of SEQ. ID NO:17 +anti-Fas antibodies, group 10 mice receive 1, 10 or 100 mg/kg of SEQ. ID NO: 18 +anti-Fas antibodies for 3 days by intracistemal administration (20 μg/day). In these different groups, anti-Fas antibodies are administered at any dose in the range of about 0.003 to about 0.3 mg/kg. […] The efficacy of the SEQ. ID NO:5, the SEQ. ID NO: 16 and the SEQ. ID NO: 17 is dose-dependent.

Fas [14] = experiment: Fas expression at the cell surface by flow cytometry, T-24 cells; assay type: cell-based, human; conditions: T-24 bladder cancer cells, 100 μg/ml sequence, 48 h, treated vs control cells
Procedure: as §1, §2, §3, §10

Fas [15] = experiment: Fas expression at the cell surface by flow cytometry, PBMCs; assay type: cell-based, human; conditions: 100 μg/ml sequence, 48 h, treated vs control cells
Procedure: as §11, §1, §2, §3

[16] = test system: EL-4 murine T lymphoma cells; experiment: EL-4 murine T lymphoma implanted in C57/BL6 lpr/lpr mice; assay type: in vivo; conditions: for efficacy, dose dependence: 1, 10 or 100 mg/kg
Procedure: EL-4 murine T lymphoma cells are implanted into C57/BL6 lpr/lpr (Fas negative mice). The mice are divided into 30 groups of 10 mice. On day 0, group 1 mice receive saline, group 2 mice receive 1, 10 or 100 mg/kg of SEQ. ID NO:5, group 3 mice receive 1, 10 or 100 mg/kg of SEQ. ID NO:16, group 4 receive 1, 10 or 100 mg/kg of SEQ. ID NO:17, group 5 mice receive 1, 10 or 100 mg/kg of SEQ. ID NO: 18, group 6 mice receive anti-Fas antibodies, group 7 mice receive 1, 10 or 100 mg/kg of SEQ. ID NO:5 +anti-Fas antibodies, group 8 mice receive 1, 10 or 100 mg/kg of SEQ. ID NO: 16 +anti-Fas antibodies, group 9 receive 1, 10 or 100 mg/kg of SEQ. ID NO:17 +anti-Fas antibodies, group 10 mice receive 1, 10 or 100 mg/kg of SEQ. ID NO:18 +anti-Fas antibodies. In these different groups, anti-Fas antibodies are administered at any dose in the range of about 0.003 to about 0.3 mg/kg. […] The efficacy of the SEQ. ID NO:5, the SEQ. ID NO: 16 and the SEQ. ID NO: 17 is dose-dependent.

FasL [17] = experiment: FasL expression at the cell surface by flow cytometry, SK-OV-3 cells; assay type: cell-based, human; conditions: SK-OV-3 ovarian cancer cells, 100 μg/ml sequence, 48 h, treated vs control cells
Procedure: as §1, §2, §3, §5

[18] = sequence 1, 10 or 100 mg/kg + anti-Fas antibodies, vs all other groups
[19] = single agent (sequence 1, 10 or 100 mg/kg, or anti-Fas antibodies) vs group 1 (saline)

GGGGGG [SEQ ID NO:16] was tested, and the “% INCREASE FasL” value (FasL [1]) was 49%, the “% INCREASE Fas” value (Fas [2]) was 118% and the “% INCREASE Fas” value (Fas [3]) was −14%. The “% INCREASE Fas” value (Fas [4]) was −5%, the “% INCREASE Fas” value (Fas [5]) was −1% and the “% INCREASE Fas” value (Fas [6]) was −7%. For the same sequence, the “% INCREASE FasL” value (FasL [7]) was 13%, the “% INCREASE FasL” value (FasL [8]) was −14% and the “% INCREASE FasL” value (FasL [9]) was 7%. The “% INCREASE FasL” value (FasL [10]) was 18%, the “% INCREASE FasL” value (FasL [11]) was 42% and the “% INCREASE Fas” value (Fas [12]) was 6%. For the same sequence, the “% INCREASE FasL” value (FasL [13]) was 10%, the “efficacy, dose dependence” value (EAE) was “dose-dependent” and the “progression of EAE” value (EAE) was “least progression of EAE”. The “% INCREASE Fas” value (Fas [14]) was 35%, the “% INCREASE Fas” value (Fas [15]) was 38% and the “efficacy, dose dependence” value [16] was “dose-dependent”. For the same sequence, the tumor mass [16, 18] was “least tumor mass”, the tumor mass [16, 19] was “less tumor mass” and the “% INCREASE FasL” value (FasL [17]) was −28%.
For GGGCGG [SEQ ID NO:18], the “% INCREASE FasL” value (FasL [1]) was 356%, the “% INCREASE Fas” value (Fas [2]) was 208% and the “% INCREASE Fas” value (Fas [3]) was 29%. The “% INCREASE Fas” value (Fas [4]) was 72%, the “% INCREASE Fas” value (Fas [5]) was 65% and the “% INCREASE Fas” value (Fas [6]) was 165%. For the same sequence, the “% INCREASE FasL” value (FasL [7]) was 126%, the “% INCREASE FasL” value (FasL [8]) was 205% and the “% INCREASE FasL” value (FasL [9]) was 142%. For the same sequence, the “% INCREASE FasL” value (FasL [10]) was 322%, the “% INCREASE FasL” value (FasL [11]) was 850% and the “% INCREASE Fas” value (Fas [12]) was 55%. For the same sequence, the “% INCREASE FasL” value (FasL [13]) was 250%, the “progression of EAE” value (EAE) was “least progression of EAE” and the “% INCREASE Fas” value (Fas [14]) was 139%. For the same sequence, the “% INCREASE Fas” value (Fas [15]) was 523%, the tumor mass [16, 18] was “least tumor mass” and the tumor mass [16, 19] was “less tumor mass”. For the same sequence, the “% INCREASE FasL” value (FasL [17]) was 42%.
With GGGAGG [SEQ ID NO:17] the “% INCREASE FasL” value (FasL [1]) was 91%, the “% INCREASE Fas” value (Fas [2]) was 77% and the “% INCREASE Fas” value (Fas [3]) was −6%. For the same sequence, the “% INCREASE Fas” value (Fas [4]) was 39%, the “% INCREASE Fas” value (Fas [5]) was 49% and the “% INCREASE Fas” value (Fas [6]) was 127%. For the same sequence, the “% INCREASE FasL” value (FasL [7]) was 55%, the “% INCREASE FasL” value (FasL [8]) was 75% and the “% INCREASE FasL” value (FasL [9]) was 59%. The “% INCREASE FasL” value (FasL [10]) was 194%, the “% INCREASE FasL” value (FasL [11]) was 356% and the “% INCREASE Fas” value (Fas [12]) was 48%. For the same sequence, the “% INCREASE FasL” value (FasL [13]) was 106%, the “efficacy, dose dependence” value (EAE) was “dose-dependent” and the “progression of EAE” value (EAE) was “least progression of EAE”. For the same sequence, the “% INCREASE Fas” value (Fas [14]) was 124%, the “% INCREASE Fas” value (Fas [15]) was 266% and the “efficacy, dose dependence” value [16] was “dose-dependent”. The tumor mass [16, 18] was “least tumor mass”, the tumor mass [16, 19] was “less tumor mass” and the “% INCREASE FasL” value (FasL [17]) was −16%.

— patent publication US20020091095A1, “Modulation of Fas and FasL expression” (priority 1999, published 2002)
